Results published in patent publication US4068070A, “α-Cyanoamine compounds and a process for producing the same” (Fuji Chemical Industry Co., Ltd., priority 1974, dated 1978).

Key:
Type in all cases: in vivo, mongrel adult dogs
heart rate = experiment: Effects on heart rate
Procedure, shortened: (§1)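 Adult mongrel dogs of both sexes were anesthetized with pentobarbital and thoracotomized. Test agents, suspended or dissolved in 0.2% CMC, pH 6 HCl solution or saline, were injected intravenously into the brachial vein. Hemodynamic and coronary sinus parameters were then recorded.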

[1] = tested on: coronary sinus oxygen tension; experiment: Effects on coronary sinus oxygen tension
Procedure, shortened: as §1

aortic blood flow = experiment: Effects on aortic blood flow
Procedure, shortened: as §1

[2] = tested on: arterial mean blood pressure; experiment: Effects on arterial mean blood pressure
Procedure, shortened: as §1

coronary sinus out flow = experiment: Effects on coronary sinus out flow
Procedure, shortened: as §1

## COc1ccc(C(C#N)N2CCN(CC=Cc3ccccc3)CC2)cc1OC (centres unmarked) [Compound D]
Heart rate; 2.0 mg/kg i.v., 1 min
  Changes(%) of basal values, heart rate: +1.0%
Heart rate; 2.0 mg/kg i.v., 5 min
  Changes(%) of basal values, heart rate: 0%
Heart rate; 2.0 mg/kg i.v., 10 min
  Changes(%) of basal values, heart rate: 0%
Heart rate; 2.0 mg/kg i.v., 20 min
  Changes(%) of basal values, heart rate: 0%
Heart rate; 2.0 mg/kg i.v., 30 min
  Changes(%) of basal values, heart rate: 0%
Heart rate; 2.0 mg/kg i.v., 40 min
  Changes(%) of basal values, heart rate: 0%
Heart rate; 2.0 mg/kg i.v., imm.
  Changes(%) of basal values, heart rate: -0.6%
Heart rate; 6.0 mg/kg i.v., 1 min
  Changes(%) of basal values, heart rate: +1.5%
Heart rate; 6.0 mg/kg i.v., 5 min
  Changes(%) of basal values, heart rate: -0.9%
Heart rate; 6.0 mg/kg i.v., 10 min
  Changes(%) of basal values, heart rate: -1.6%
Heart rate; 6.0 mg/kg i.v., 20 min
  Changes(%) of basal values, heart rate: -1.0%
Heart rate; 6.0 mg/kg i.v., 30 min
  Changes(%) of basal values, heart rate: -0.5%
Heart rate; 6.0 mg/kg i.v., 40 min
  Changes(%) of basal values, heart rate: 0%
Heart rate; 6.0 mg/kg i.v., imm.
  Changes(%) of basal values, heart rate: -1.5%
Heart rate; 20.0 mg/kg i.v., 1 min
  Changes(%) of basal values, heart rate: -3.1%
Heart rate; 20.0 mg/kg i.v., 5 min
  Changes(%) of basal values, heart rate: -3.5%
Heart rate; 20.0 mg/kg i.v., 10 min
  Changes(%) of basal values, heart rate: -3.9%
Heart rate; 20.0 mg/kg i.v., 20 min
  Changes(%) of basal values, heart rate: -2.8%
Heart rate; 20.0 mg/kg i.v., 30 min
  Changes(%) of basal values, heart rate: -1.3%
Heart rate; 20.0 mg/kg i.v., 40 min
  Changes(%) of basal values, heart rate: -0.5%
Heart rate; 20.0 mg/kg i.v., imm.
  Changes(%) of basal values, heart rate: -14.5%
Heart rate; i.v., anesthetized dogs
  Effects on heart rate (in words): a slight negative chronotropic effect
[1]; 2.0 mg/kg i.v., 1 min
  Changes(%) of basal values, coronary sinus oxygen tension: +2.7%
[1]; 2.0 mg/kg i.v., 5 min
  Changes(%) of basal values, coronary sinus oxygen tension: +0.5%
[1]; 2.0 mg/kg i.v., 10 min
  Changes(%) of basal values, coronary sinus oxygen tension: -1.0%
[1]; 2.0 mg/kg i.v., 20 min
  Changes(%) of basal values, coronary sinus oxygen tension: -0.5%
[1]; 2.0 mg/kg i.v., 30 min
  Changes(%) of basal values, coronary sinus oxygen tension: 0%
[1]; 2.0 mg/kg i.v., 40 min
  Changes(%) of basal values, coronary sinus oxygen tension: 0%
[1]; 2.0 mg/kg i.v., imm.
  Changes(%) of basal values, coronary sinus oxygen tension: +6.7%
[1]; 6.0 mg/kg i.v., 1 min
  Changes(%) of basal values, coronary sinus oxygen tension: +14.0%
[1]; 6.0 mg/kg i.v., 5 min
  Changes(%) of basal values, coronary sinus oxygen tension: +5.8%
[1]; 6.0 mg/kg i.v., 10 min
  Changes(%) of basal values, coronary sinus oxygen tension: +1.0%
[1]; 6.0 mg/kg i.v., 20 min
  Changes(%) of basal values, coronary sinus oxygen tension: -1.0%
[1]; 6.0 mg/kg i.v., 30 min
  Changes(%) of basal values, coronary sinus oxygen tension: 0%
[1]; 6.0 mg/kg i.v., 40 min
  Changes(%) of basal values, coronary sinus oxygen tension: 0%
[1]; 6.0 mg/kg i.v., imm.
  Changes(%) of basal values, coronary sinus oxygen tension: +23.8%
[1]; 20.0 mg/kg i.v., 1 min
  Changes(%) of basal values, coronary sinus oxygen tension: +43.8%
[1]; 20.0 mg/kg i.v., 5 min
  Changes(%) of basal values, coronary sinus oxygen tension: -21.2%
[1]; 20.0 mg/kg i.v., 10 min
  Changes(%) of basal values, coronary sinus oxygen tension: +8.4%
[1]; 20.0 mg/kg i.v., 20 min
  Changes(%) of basal values, coronary sinus oxygen tension: +3.2%
[1]; 20.0 mg/kg i.v., 30 min
  Changes(%) of basal values, coronary sinus oxygen tension: +2.0%
[1]; 20.0 mg/kg i.v., 40 min
  Changes(%) of basal values, coronary sinus oxygen tension: +0.2%
[1]; 20.0 mg/kg i.v., imm.
  Changes(%) of basal values, coronary sinus oxygen tension: +60.3%
[1]; i.v., anesthetized dogs
  Effects on coronary sinus oxygen tension (in words): a significant increase in coronary sinus oxygen tension, effect of which was of long duration
Aortic blood flow; 2.0 mg/kg i.v., 1 min
  Changes (%) of basal values, aortic blood flow: +3.3%
Aortic blood flow; 2.0 mg/kg i.v., 5 min
  Changes (%) of basal values, aortic blood flow: -0.8%
Aortic blood flow; 2.0 mg/kg i.v., 10 min
  Changes (%) of basal values, aortic blood flow: 0%
Aortic blood flow; 2.0 mg/kg i.v., 20 min
  Changes (%) of basal values, aortic blood flow: 0%
Aortic blood flow; 2.0 mg/kg i.v., 30 min
  Changes (%) of basal values, aortic blood flow: 0%
Aortic blood flow; 2.0 mg/kg i.v., 40 min
  Changes (%) of basal values, aortic blood flow: 0%
Aortic blood flow; 2.0 mg/kg i.v., imm.
  Changes (%) of basal values, aortic blood flow: +8.3%
Aortic blood flow; 6.0 mg/kg i.v., 1 min
  Changes (%) of basal values, aortic blood flow: +3.3%
Aortic blood flow; 6.0 mg/kg i.v., 5 min
  Changes (%) of basal values, aortic blood flow: -2.7%
Aortic blood flow; 6.0 mg/kg i.v., 10 min
  Changes (%) of basal values, aortic blood flow: +0.7%
Aortic blood flow; 6.0 mg/kg i.v., 20 min
  Changes (%) of basal values, aortic blood flow: +0.5%
Aortic blood flow; 6.0 mg/kg i.v., 30 min
  Changes (%) of basal values, aortic blood flow: 0%
Aortic blood flow; 6.0 mg/kg i.v., 40 min
  Changes (%) of basal values, aortic blood flow: 0%
Aortic blood flow; 6.0 mg/kg i.v., imm.
  Changes (%) of basal values, aortic blood flow: +12.0%
Aortic blood flow; 20.0 mg/kg i.v., 1 min
  Changes (%) of basal values, aortic blood flow: +16.3%
Aortic blood flow; 20.0 mg/kg i.v., 5 min
  Changes (%) of basal values, aortic blood flow: -3.8%
Aortic blood flow; 20.0 mg/kg i.v., 10 min
  Changes (%) of basal values, aortic blood flow: -4.0%
Aortic blood flow; 20.0 mg/kg i.v., 20 min
  Changes (%) of basal values, aortic blood flow: -3.4%
Aortic blood flow; 20.0 mg/kg i.v., 30 min
  Changes (%) of basal values, aortic blood flow: -1.8%
Aortic blood flow; 20.0 mg/kg i.v., 40 min
  Changes (%) of basal values, aortic blood flow: -0.3%
Aortic blood flow; 20.0 mg/kg i.v., imm.
  Changes (%) of basal values, aortic blood flow: +27.4%
Aortic blood flow; i.v., anesthetized dogs
  Effects on aortic blood flow (in words): an increase in blood flow immediately after administration, followed by a decrease in blood flow
[2]; 2.0 mg/kg i.v., 1 min
  Changes (%) of basal values, arterial mean blood pressure: +1.6%
[2]; 2.0 mg/kg i.v., 5 min
  Changes (%) of basal values, arterial mean blood pressure: -3.0%
[2]; 2.0 mg/kg i.v., 10 min
  Changes (%) of basal values, arterial mean blood pressure: -1.5%
[2]; 2.0 mg/kg i.v., 20 min
  Changes (%) of basal values, arterial mean blood pressure: -0.5%
[2]; 2.0 mg/kg i.v., 30 min
  Changes (%) of basal values, arterial mean blood pressure: 0%
[2]; 2.0 mg/kg i.v., 40 min
  Changes (%) of basal values, arterial mean blood pressure: 0%
[2]; 2.0 mg/kg i.v., imm.
  Changes (%) of basal values, arterial mean blood pressure: -13.6%
[2]; 6.0 mg/kg i.v., 1 min
  Changes (%) of basal values, arterial mean blood pressure: -9.7%
[2]; 6.0 mg/kg i.v., 5 min
  Changes (%) of basal values, arterial mean blood pressure: -10.3%
[2]; 6.0 mg/kg i.v., 10 min
  Changes (%) of basal values, arterial mean blood pressure: -10.0%
[2]; 6.0 mg/kg i.v., 20 min
  Changes (%) of basal values, arterial mean blood pressure: -6.0%
[2]; 6.0 mg/kg i.v., 30 min
  Changes (%) of basal values, arterial mean blood pressure: -3.0%
[2]; 6.0 mg/kg i.v., 40 min
  Changes (%) of basal values, arterial mean blood pressure: -1.0%
[2]; 6.0 mg/kg i.v., imm.
  Changes (%) of basal values, arterial mean blood pressure: -36.1%
[2]; 20.0 mg/kg i.v., 1 min
  Changes (%) of basal values, arterial mean blood pressure: -19.7%
[2]; 20.0 mg/kg i.v., 5 min
  Changes (%) of basal values, arterial mean blood pressure: -14.4%
[2]; 20.0 mg/kg i.v., 10 min
  Changes (%) of basal values, arterial mean blood pressure: -13.5%
[2]; 20.0 mg/kg i.v., 20 min
  Changes (%) of basal values, arterial mean blood pressure: -8.3%
[2]; 20.0 mg/kg i.v., 30 min
  Changes (%) of basal values, arterial mean blood pressure: -5.1%
[2]; 20.0 mg/kg i.v., 40 min
  Changes (%) of basal values, arterial mean blood pressure: -3.1%
[2]; 20.0 mg/kg i.v., imm.
  Changes (%) of basal values, arterial mean blood pressure: -45.0%
[2]; i.v., anesthetized dogs
  Effects on arterial mean blood pressure (in words): hypotensive effects being proportioned to their doses which were of long duration
Coronary sinus out flow; 2.0 mg/kg i.v., 1 min
  Changes(%) of basal values, coronary sinus out flow: +1.6%
Coronary sinus out flow; 2.0 mg/kg i.v., 5 min
  Changes(%) of basal values, coronary sinus out flow: -3.1%
Coronary sinus out flow; 2.0 mg/kg i.v., 10 min
  Changes(%) of basal values, coronary sinus out flow: -1.0%
Coronary sinus out flow; 2.0 mg/kg i.v., 20 min
  Changes(%) of basal values, coronary sinus out flow: 0%
Coronary sinus out flow; 2.0 mg/kg i.v., 30 min
  Changes(%) of basal values, coronary sinus out flow: 0%
Coronary sinus out flow; 2.0 mg/kg i.v., 40 min
  Changes(%) of basal values, coronary sinus out flow: 0%
Coronary sinus out flow; 2.0 mg/kg i.v., imm.
  Changes(%) of basal values, coronary sinus out flow: +6.2%
Coronary sinus out flow; 6.0 mg/kg i.v., 1 min
  Changes(%) of basal values, coronary sinus out flow: +9.1%
Coronary sinus out flow; 6.0 mg/kg i.v., 5 min
  Changes(%) of basal values, coronary sinus out flow: -0.2%
Coronary sinus out flow; 6.0 mg/kg i.v., 10 min
  Changes(%) of basal values, coronary sinus out flow: -0.4%
Coronary sinus out flow; 6.0 mg/kg i.v., 20 min
  Changes(%) of basal values, coronary sinus out flow: -0.2%
Coronary sinus out flow; 6.0 mg/kg i.v., 30 min
  Changes(%) of basal values, coronary sinus out flow: 0%
Coronary sinus out flow; 6.0 mg/kg i.v., 40 min
  Changes(%) of basal values, coronary sinus out flow: 0%
Coronary sinus out flow; 6.0 mg/kg i.v., imm.
  Changes(%) of basal values, coronary sinus out flow: +23.0%
Coronary sinus out flow; 20.0 mg/kg i.v., 1 min
  Changes(%) of basal values, coronary sinus out flow: +49.3%
Coronary sinus out flow; 20.0 mg/kg i.v., 5 min
  Changes(%) of basal values, coronary sinus out flow: +9.1%
Coronary sinus out flow; 20.0 mg/kg i.v., 10 min
  Changes(%) of basal values, coronary sinus out flow: +8.4%
Coronary sinus out flow; 20.0 mg/kg i.v., 20 min
  Changes(%) of basal values, coronary sinus out flow: +8.0%
Coronary sinus out flow; 20.0 mg/kg i.v., 30 min
  Changes(%) of basal values, coronary sinus out flow: +5.7%
Coronary sinus out flow; 20.0 mg/kg i.v., 40 min
  Changes(%) of basal values, coronary sinus out flow: +3.0%
Coronary sinus out flow; 20.0 mg/kg i.v., imm.
  Changes(%) of basal values, coronary sinus out flow: +66.2%
Coronary sinus out flow; i.v., anesthetized dogs
  Effects on coronary sinus out flow (in words): a marked increasing effect on coronary sinus out flow, which was proportioned to doses thereof and of long duration
